Results reported in patent publication US6869950B1, “Benzimidazole derivatives” (Fujisawa Pharmaceutical Co., Ltd., priority 1998, dated 2005).

system: db/db mice; assay: Activity of decreasing blood sugar using db/db mice; type: in vivo; conditions: female db/db mice, 1 mg/kg, compound mixed with powdered chow, 14 days; difference between db/db and +/+ mouse defined as 100%
Text: <Activity of Decreasing Blood Sugar Using db/db Mice>
• 1-(2-Chloro-4-(n-pentyloxy)benzyl)-2-methyl-6-((4-methylbenzene)sulfonylcarbamoyl)benzimidazole—Compound(15) • 6-((N-1-butylaminosulfonyl)carbamoyl)-1-(2-chloro-4-phenylbenzyl)-2-methylbenzimidazole—Compound(76) Animal Used
Five-week-old female mice [C57BL/KsJ-dbm db+/db+, C57BL/KsJ-dbm +m/+m (Jackson Laboratory)] were purchased, and were kept for 2 to 3 weeks. Then, these mice were used in the test.
A test compound was mixed with a powdered chow (CE-2, made by Nippon Clea) using a mortar. The mixing ratio was 0.01%. The mixed chow was changed twice a week for each group. The feed amount and the remaining amount were recorded, and the intake was calculated from the difference therebetween.
The female db/db mice were grouped according to the body weight, the plasma glucose, and the plasma triglyceride concentrations. Then, the mixture containing the test compound was administered to the mice for 14 days (from 8 to 10 weeks old). In the morning on day 7 and day 14, blood was collected from the orbital venous plexus using heparinized glass capillary tubes (Chase Heparinized Capillary Tubes), and a plasma fraction was obtained through centrifugal separation. Plasma glucose, triglyceride, and insulin concentrations were measured on day 0 and day 14. Plasma glucose and triglyceride concentrations were measured on day 7. The body weight was measured on day 0, day 7, and day 14. After the final collection of the blood, the mice were killed using CO2 gas.
The plasma glucose was measured by a glucose oxidase method (Glucose CII-Test Wako made by Wako Pure Chemical Industries, Ltd.) using from 10 to 15 μl of plasma. The plasma triglyceride concentration was measured by a GPO-p-chlorophenol method (Triglyceride G-Test Wako made by Wako Pure Chemical Industries, Ltd.) or a GPO-DAOS method (Triglyceride E-Test Wako) using from 10 to 15 μl of plasma. The above-mentioned measurements were conducted immediately after the blood collection. The plasma insulin concentration was measured by radioimmunoassay method (Phadesef Insulin RIA Kit made by Cabi Pharmacia) using 20 μl of plasma (which can be stored at −20° C.).
The difference in the plasma glucose and the plasma triglyceride concentrations between the db/db mouse and the +/+ mouse was defined as 100%, and the rate (%) of decrease in the plasma glucose and the plasma triglyceride concentrations of the group to which the test compound was administered was calculated. […]

SMILES	rate of decrease in the plasma glucose [%]	rate of decrease in the plasma triglyceride [%]
CCCCCOc1ccc(Cn2c(C)nc3ccc(C(=O)NS(=O)(=O)c4ccc(C)cc4)cc32)c(Cl)c1 [Compound (15), 1-(2-chloro-4-(n-pentyloxy)benzyl)-2-methyl-6-((4-methylbenzene)sulfonylcarbamoyl)benzimidazole]	79	69
CCCCNS(=O)(=O)NC(=O)c1ccc2nc(C)n(Cc3ccc(-c4ccccc4)cc3Cl)c2c1 [Compound (76), 6-((N-1-butylaminosulfonyl)carbamoyl)-1-(2-chloro-4-phenylbenzyl)-2-methylbenzimidazole]	71	98

system: not given; assay: not given; conditions: not given

melting point [°C]	SMILES
205 to 207	CCCCCS(=O)(=O)NC(=O)c1ccc2nc(C)n(Cc3ccc(N4CCOCC4)cc3Cl)c2c1 [Compound (71), 1-(2-chloro-4-morpholinobenzyl)-2-methyl-6-(1-pentanesulfonylcarbamoyl)benzimidazole]
202 to 203	CCCNS(=O)(=O)NC(=O)c1ccc2nc(C)n(Cc3ccc(C(F)(F)F)cc3Cl)c2c1 [Compound (74), 1-(2-chloro-4-(trifluoromethyl)benzyl)-2-methyl-6-((N-1-propylaminosulfonyl)carbamoyl)benzimidazole]
176.4 to 179.1	CCCCCOc1ccc(Cn2c(C)nc3ccc(C(=O)NS(=O)(=O)NCCC)cc32)c(Cl)c1 [Compound (89), 1-(2-chloro-4-(pentyloxy)benzyl)-2-methyl-6-((N-1-propylaminosulfonyl)carbamoyl)benzimidazole]
177.8 to 180.2	CCCNS(=O)(=O)NC(=O)c1ccc2nc(C)n(Cc3ccc(-c4ccco4)cc3Cl)c2c1 [Compound (92), 1-(2-chloro-4-(2-furyl)benzyl)-2-methyl-6-((N-1-propylaminosulfonyl)carbamoyl)benzimidazole]

Second part, the molecule before the results:

SMILES	melting point [°C]
CCCCC#Cc1ccc(Cn2c(C)nc3ccc(C(=O)NS(=O)(=O)CCCCC)cc32)c(Cl)c1 [Compound (44), 1-(2-chloro-4-(1-hexyn-1-yl)benzyl)-2-methyl-6-(1-pentanesulfonylcarbamoyl)benzimidazole]	190 to 191
CCCNS(=O)(=O)NC(=O)c1ccc2nc(C)n(Cc3ccc(OCC)cc3Cl)c2c1 [Compound (86), 1-(2-chloro-4-(ethyloxy)benzyl)-2-methyl-6-((N-1-propylaminosulfonyl)carbamoyl)benzimidazole]	175.3 to 176.2
CCNS(=O)(=O)NC(=O)c1ccc2nc(C)n(Cc3ccc(-c4ccco4)cc3Cl)c2c1 [Compound (91), 1-(2-chloro-4-(2-furyl)benzyl)-6-((N-ethylaminosulfonyl)carbamoyl)-2-methylbenzimidazole]	190.5 to 192.2
